Assay results published in patent US10633408B2, “Nucleoside-lipid compounds with pH-sensitive dialkylorthoester chains and their use for transportation or vectorization of at least one therapeutic agent” (UNIVERSITE DE BORDEAUX, priority 2015, dated 2020).

Tests used:
[1] = DLS of nucleolipid/DOPE liposomes and siRNA complexes; type: physicochemical; conditions: for size of siRNA complexes with siRNA RECQL4 / size of siRNA complexes with siRNA luciferase: 10 pmol siRNA + 2 nmol nucleolipid/DOPE, serum-free medium; for diameter of liposomes: nucleolipid/DOPE liposomes in water
Protocol: (§1) Compound 6 and DOPE were mixed with molar ratio and dissolved in methylene chloride. The solvent was evaporated with nitrogen flow while stirring to prepare lipids films. This preparation was rehydrated with 1 mL of water, them submitted to Vortex, and the tube was put in ultrasonic bath (37 kHz) during 15-20 min at 15° C. The same experiment was carried out with DOTAU/DOPE (1:1) Liposomes were analysed by DLS (Malvern, Zetasizer) and measured 74 nm of diameters for orthoester and 48 nm for DOTAU. 10 pmol of siRNA were added to 2 nmol of orthoester/DOPE in 100 μL of PRMI 1640 serum-free medium. After submitting to Vortex, this solution was incubated 20 min at RT and transferred in wells. The siRNA orthoester/DOPE complexes were analysed by DLS and measured at 90 nm with siRNA luciferase and at 100 nm with siRNA RECQL4 for orthoester (69 nm and 63 nm, respectively for DOTAU).

RECQL4 = assay: Inhibition of RECQL4 by siRNA transfection, qPCR normalized with GAPDH; type: cell-based, human; conditions: MDA-MB-134 breast cancer cells, 72 h, nucleolipid/DOPE complexes, N/P 1/5 and 1/10
Protocol: as §1, with “RECQL4 is a human RecQ helicase implicated in three syndromes (Rothmund-Thompson, […] and Baller-Gerold) displaying accelerating aging, developmental abnormalities and cancer's predisposition. […] In this example, the efficacy of compound 6 prepared in example 2 in the transfection of siRNA targeting RECQL4 is evaluated. Compound” for “Compound”, “(1:1)” for “(1:1) Liposomes were analysed by DLS (Malvern, Zetasizer) and measured 74 nm of diameters for orthoester and 48 nm for DOTAU.”, “DOTAU). 2.10^5 MDA-MB-134 cells by well were added in 500 μL final volume. […] RNA was converted in cDNA by Reverse Transcription with QuantiTect kit (Qiagen). Then, a quantitative PCR was performed with 25 ng of cDNA, the master mix GoTaq qPCR (Promega) and specific primers (1 μM). […]” for “DOTAU).”

[2] = Liposome characterization by dynamic light scattering and zeta potential; type: physicochemical; conditions: liposomes of the compound alone, 1 mg/mL in Milli-Q water; for Pdi (polydispersity) of liposomes / d (diameter) of liposomes: DLS
Protocol: Zeta potential measurements and Dynamic light scattering (DLS) measurements of liposomes were performed with a MalvernNanoZS device.
100 μL of stock solutions of anionic or cationic compounds of formula (I) prepared in examples 2 and 6 (10 mg/mL in dichloromethane) were placed in glass tubes, dried under dry N2 and then desiccated under vacuum. Milli-Q Water was added to the dried lipid to obtain liposomes dispersions (1 mg/mL) after vortex agitation and sonication for 10 min.
The size distribution by intensity measured by dynamic light scattering (DLS) of liposomes prepared from compound 11 prepared in example 6 (anionic compounds of formula (I)) is shown on FIG. 3A, and of liposomes prepared from compound 6 prepared in example 2 (cationic compound of formula (I)) is shown on FIG. 3B.

[3] = Small-angle X-ray scattering (SAXS) of compound 6/DOPC; type: physicochemical; conditions: with DOPC (mol ratio 50/50), incubation at pH=5 and 37° C.
Protocol: […] SAXS experiments were carried out at the Centre de Recherche Paul Pascal, Pessac, France on a NanoStar (Bruker). With a sample to detector distance equal to 650 mm and a radiation wavelength of A=0.154 nm, the scattering wave vectors in reciprocal space ranged from q=0.16 nm^−1 and 3.4 nm^−1.
The beam size at the sample position was 0.45 mm (0). Images were captured by the HiStar (Bruker).
The array of detection totalizes 1024×1024 pixels, each one with 100 μm for side. Data were radially averaged and corrected for background scattering by using the software SAXS-Bruker. All experiments were carried out on thermally equilibrated samples at 25° C., which was obtained by keeping the sample holders under water circulation at controlled temperature.

[4] = 1H NMR kinetic study of orthoester hydrolysis; type: physicochemical; conditions: for rate of hydrolysis of the orthoester function, effect of pH: MeOD:phosphate buffer (1:2), pH 5 vs 7.4, 37° C.
Protocol: 1HNMR experiments were performed to study the kinetics of hydrolysis for both anionic and cationic compounds of formula (I) at pH 5 and 7.4 by measuring the percentage of hydrolyzed compound versus time.
10 mg of cationic compound (6) prepared in example 2 or anionic compound (11) prepared in example 6 were dissolved in a mixture of MeOD:Buffer phosphate (1:2) (pH 5 or 7.4), mixed and placed in a NMR tube. ^1H NMR Experiment was performed at 37° C. at 300 MHz on a BRUKER® Avance DPX-300.
After hydrolysis of the orthoester function, the chemical shifts of the thymidine CH3 protons are shifted upfield and downfield for compound 6 and 11, respectively. Thus, the percentage of hydrolysis versus time was followed by integrating the signals of the CH3 protons.

SMILES | size of siRNA complexes with siRNA RECQL4 [1] | size of siRNA complexes with siRNA luciferase [1] | diameter of liposomes [1] | expression of RECQL4 after siRNA transfection (RECQL4) | ζ (zeta potential) of liposomes [2] | Pdi (polydispersity) of liposomes [2] | d (diameter) of liposomes [2] | SAXS profile before and after incubation [3] | rate of hydrolysis of the orthoester function, effect of pH [4] | rate of hydrolysis relative to cationic compound 6 ([4]; at both pH 5 and 7, 37° C.)
CCCCCCCC/C=C\CCCCCCCC(=O)OC1C(C[N+](C)(C)C)OC(n2ccc(=O)[nH]c2=O)C1OC(=O)CCCCCCC/C=C\CCCCCCCC.Cc1ccc(S(=O)(=O)[O-])cc1 (stereo not drawn) [DOTAU, N-[5′-(2′,3′-dioleoyl)uridine]-N′,N′,N′-trimethylammonium tosylate, reference compound] | 63 nm | 69 nm | 48 nm | not able to transfect the siRNA targeting RECQL4 |  |  |  |  |  | 
CCCCCCCCCCCCCCCCOC(OCCCCCCCCCCCCCCCC)O[C@H]1C[C@H](n2cc(C)c(=O)[nH]c2=O)O[C@@H]1C[N+](C)(C)C.CS(=O)(=O)[O-] [Compound 6, 1-((2R,3S,5R)-3-(bis(hexadecyloxy)methoxy)-5-(5-methyl-2,4-dioxo-3,4-dihydropyrimidin-1 (2H)-yl)tetrahydrofuran-2-yl)-N,N,N-trimethyl-methanaminium methanesulfonate] | 100 nm | 90 nm | 74 nm | able to inhibit the expression of RECQL4 | 51.4 mV | 0.221 | 135.9 nm | evolves from vesicular to multilamellar systems | higher rates of hydrolysis at pH=5 | 
CCCCCCCCCCCCCCCCOC(OCCCCCCCCCCCCCCCC)O[C@H]1C[C@H](n2cc(C)c(=O)[nH]c2=O)O[C@@H]1COP(=O)(O)OC [Compound 11, ((2R,3S,5R)-3-(bis(hexadecyloxy)methoxy)-5-(5-methyl-2,4-dioxo-3,4-dihydropyrimidin-1(2H)-yl)tetrahydrofuran-2-yl)methyl methyl phosphate] |  |  |  |  | −43.3 mV | 0.163 | 100.4 nm |  | higher rates of hydrolysis at pH=5 | increased hydrolysis rates
